The test system of data set [1] is Wnt pathway (Wnt1/Frzd8). The data set is described as follows: Wnt signaling pathway reporter gene assay (6xTCF-luciferase, Wnt1/Frizzled 8/LRP6 stimulated Hek293T cells). To be noted: Homo sapiens, HEK-293T, Hek293T, 6xTCF-luciferase reporter, 24 h incubation, 5 nM-100 microM, read-out: Wnt1/Frzd8 IC50 (Wnt pathway inhibitory activity). The class given is cell-based, mouse (Wnt1, human (LRP6). The source says: To screen for small-molecule modulators of the Wnt signaling pathway, a reporter gene based assay describing the modulation of the TCF4 transcription factor was used. […]

The nature of data set [2]: Cytotoxicity in Hek293T (CellTiterGlo). The class given is cell-based. To be noted: human, Hek293T cells, 24 h after compound addition, 5 nM-100 microM, read-out: Hek293T IC50 (cytotoxic activity). The method, then:
(§1) For examination of cytotoxicity in these cancer cell lines the commercial available CellTiterGlo® Reagent (Promega, USA) was used according to the manufactor. Compounds were applied to Hek293T (denoted (a)) or HepG2 (denoted (b)), cultured in Dulbecco's Modified Eagles Medium, supplemented with 10% fetal calf serum and 1% penicillin/streptomycin. Cells were grown in T75 flasks at 37° C., 5% CO2 and trypsinized when 60-80% confluent by adding 2 ml of 0.25% Trypsin-EDTA solution. Cells were then re-suspended into culture medium yielding approx. 4000 cells (a) or 4500 cells (b), suspended in 30 microl medium. 48 h after cell seeding, compounds were added to yield the desired final concentrations. 24 h after compound addition cytotoxicity was evaluated. For this purpose the media was removed and CellTiterGlo® was added according to the manufactors manual. In this assay the luciferase emission readout is directly correlated with the cellular amount of ATP, low luciferase emission thus is reflecting cytotoxicity of a compound.

A short description of data set [3]: Cytotoxicity in HepG2 (CellTiterGlo). To be noted: human, HepG2 cells, 24 h after compound addition, 5 nM-100 microM, read-out: HepG2 IC50 (cytotoxic activity). Type of data set: cell-based. The method, then: as §1
For orientation: Cellular ATP, detected with luciferase, serves as a proxy for viable cell number.

In data set [4] the test system is human fibroblasts (HS-68). The data set is described as follows: Cell line specific cytotoxicity, normal cells HS68 (nuclei count). The class given is cell-based. To be noted: at least 72 hr incubation, Hoechst nuclei count, read-out: HS68 IC50 (influence on normal cells). The method, then: (§2) For examination of cell line-specific cytotoxicity, compounds were applied to human colorectal cancer cells (HCT116, denoted (1); SW480, denoted (2); Dld-1, denoted (3)) and human fibroblasts (HS-68, denoted (4)), cultured in Mc Coy's ((1)) and Dulbecco's Modified Eagles Medium ((2)-(4)), supplemented with 10% ((1)-(3)) and 20% ((4)) fetal calf serum and 1% penicillin/streptomycin. Cells were grown in T75 flasks at 37° C., 5% CO2 and trypsinized when 60-80% confluent by adding 2 ml of 0.25% Trypsin-EDTA (ethylenediaminetetraacetic acid) solution. Cells were then re-suspended into culture medium yielding approx. 750 cells, suspended in 45 microl medium, were plated into each well of a black 384-well plate for fluorescence imaging experiments. 24-36 hr later 5 microl compound solution (100 microM compound dissolved in ultra pure water containing 1% DMSO (dimethylsulfoxide)), were added to achieve a final concentration of 10 microM and were incubated for at least 72 hr. Compound incubation was terminated by (a) fixation and (b) permeabilisation of cells, followed by (c) fluorescence labeling of cell nuclei for cytometric quantification or by immunocytochemistry for microscopic evaluation of cell morphology. […] Solutions were incubated for 15 (a,b) and 30 min (c) in the dark at room temperature. Cells were washed twice between each step with 30 microl PBS. The assay system was miniaturized and adapted to automated workflow using liquid-handling robotics.
(§3) Cell line-specific cytotoxicity was quantified by counting the number of Hoechst labeled nuclei per well of a 384-well plate using a plate cytometer. Data obtained with the cytometer was analysed using standard data analysis software.
Identified hits were further evaluated by visual inspection of fluorescence micrographs obtained from imaging using a conventional fluorescence microscope.

Data set [5] relates to Dld1 colon carcinoma cells. The data set is described as follows: Antiproliferative activity against Dld1 colon carcinoma cells (nuclei count). The class given is cell-based, human. To be noted: Homo sapiens, DLD-1; colon carcinoma cells, 5 nM-90 microM, nuclei count; read-out: Dld1 IC50. The method, then:
as §2, §3
(§4) The examination of the antiproliferative activity against human colon carcinoma cells Dld1, HCT116 and SW480 was carried out in analogy to the procedure carried out for HS68. The respective compound applied in increasing concentrations yielding final concentrations per well of 5 nM-90 microM.

Data set [6] concerns HCT116 colon carcinoma cells. The experiment in a line: Antiproliferative activity against HCT116 colon carcinoma cells (nuclei count). Type of data set: cell-based, human. To be noted: Homo sapiens, HCT-116; colon carcinoma cells, 5 nM-90 microM, nuclei count; read-out: HCT116 IC50. The method, then:
as §2, §3, §4

In data set [7] the test system is SW480 colon carcinoma cells. The experiment in a line: Antiproliferative activity against SW480 colon carcinoma cells (nuclei count). Type of data set: cell-based. To be noted: Homo sapiens, 5 nM-90 microM. The method, then: as §2, §3, §4

Like-named read-outs stand apart in the source and are kept apart here.

For `C=CCOc1c(Br)cc(C2C(C(=O)OCC)=C(N)Oc3cc4c(cc32)OCO4)cc1OC` (centres unmarked) [(42), 8-(4-Allyloxy-3-bromo-5-methoxy-phenyl)-6-amino-8H-[1,3]dioxolo[4,5-g]chromene-7-carboxylic acid ethyl ester], the IC50 in data set [1] (24 h) came to 55 nM; in data set [4], 469 nM; in data set [5] it was 293 nM; in data set [6], 250 nM; in data set [7], 343 nM. Besides, the IC50 at 24 h in data set [2] and in data set [3] was over 90000 nM each time.

Take `CCOC(=O)C1=C(N)Oc2c(ccc3ccccc23)C1c1cc(Br)c(OC)c(OC)c1` (centres unmarked) [(6), 2-Amino-4-(3-bromo-4,5-dimethoxy-phenyl)-4H-benzo[h]chromene-3-carboxylic acid ethyl ester]: the IC50 in data set [1] (24 h) was 855 nM; in data set [4], over 90000 nM; in data set [5], 3820 nM; in data set [6] it was 8600 nM; in data set [7], 5960 nM. Also, the IC50 at 24 h in data set [2] and in data set [3] was over 90000 nM each time.

On to `C=CCOc1c(Br)cc(C2C(C#N)=C(N)Oc3cc4c(cc32)OCO4)cc1OC` (centres unmarked) [(41), 8-(4-Allyloxy-3-bromo-5-methoxy-phenyl)-6-amino-8H-[1,3]dioxolo[4,5-g]chromene-7-carbonitrile], for which the IC50 in data set [1] amounted to 45 nM; in data set [4] it was 641 nM; in data set [5], 470 nM; in data set [6], 551 nM; in data set [7], 618 nM. In addition, the IC50 at 24 h in data set [2] and in data set [3] was over 90000 nM each time.

Consider `N#CC1=C(N)Oc2cc3ccccc3cc2C1c1cc(F)c(N2CCCCC2)c(F)c1` (centres unmarked) [(29), 2-amino-4-(3,5-difluoro-4-piperidin-1-yl-phenyl)-4H-benzo[g]chromene-3-carbonitrile], for which the IC50 in data set [1] is 6480 nM; in data set [4], over 90000 nM; in data set [5] it was over 90000 nM; in data set [6], over 90000 nM; in data set [7] it was 38500 nM. The IC50 at 24 h in data set [2] was over 90000 nM; in data set [3], 42500 nM.

In the case of `COc1cc(C2C(C#N)=C(N)Oc3c2ccc2ccccc32)cc(Br)c1OC` (centres unmarked) [(1), 2-Amino-4-(3-bromo-4,5-dimethoxy-phenyl)-4H-benzo[h]chromene-3-carbonitrile], the IC50 in data set [1] was 46 nM; in data set [4], 87 nM; in data set [5], 38 nM; in data set [6] it was 49 nM; in data set [7] it was 56 nM. The IC50 at 24 h in data set [2] and in data set [3] was over 90000 nM throughout.

Take `COc1cc(C2C(C#N)=C(N)Oc3c2ccc2ncccc32)cc(Br)c1OC` (centres unmarked) [(18), 6-Amino-8-(3-bromo-4,5-dimethoxy-phenyl)-8H-5-oxa-1-aza-phenanthrene-7-carbonitrile]: the IC50 amounted to 33 nM in data set [1]; 2770 nM in data set [4]; 185 nM in data set [5]; 331 nM in data set [6]; 19700 nM in data set [7]. Besides, the IC50 at 24 h in data set [2] and in data set [3] was over 90000 nM each time.

Take `C=CCOc1c(Br)cc(C2C(C(=O)OCC)=C(N)Oc3c2ccc2ccccc32)cc1OC` (centres unmarked) [(4), 4-(4-Allyloxy-3-bromo-5-methoxy-phenyl)-2-amino-4H-benzo[h]chromene-3-carboxylic acid ethyl ester]: the IC50 came to 86 nM in data set [1] (24 h); 215 nM in data set [4]; 171 nM in data set [5]; 146 nM in data set [6]; 332 nM in data set [7]. Further, the IC50 at 24 h in data set [2] and in data set [3] was over 90000 nM throughout.

As for `CCOC(=O)C1=C(N)Oc2cc3c(cc2C1c1cc(F)c(F)c(F)c1)OCO3` (centres unmarked) [(40), 6-Amino-8-(3,4,5-trifluoro-phenyl)-8H-[1,3]dioxolo[4,5-g]chromene-7-carboxylic acid ethyl ester], the IC50 was 3420 nM in data set [1] (24 h); over 90000 nM in data set [4]; 15700 nM in data set [5]; over 90000 nM in data set [6]; 6380 nM in data set [7]. The IC50 at 24 h in data set [2] and in data set [3] was over 90000 nM in each case.

Turning to `N#CC1=C(N)Oc2c(ccc3ccccc23)C1c1cc(F)c(F)c(F)c1` (centres unmarked) [(7), 2-Amino-4-(3,4,5-trifluoro-phenyl)-4H-benzo[h]chromene-3-carbonitrile], the IC50 was 316 nM in data set [1]; over 90000 nM in data set [4]; 474 nM in data set [5]; 922 nM in data set [6]; 2860 nM in data set [7]. The IC50 at 24 h in data set [2] and in data set [3] was over 90000 nM each time.

On to `COc1cc(C2C(C#N)=C(N)Oc3c2ccc2ccc(C)nc32)cc(Br)c1OC` (centres unmarked) [(16), 3-Amino-1-(3-bromo-4,5-dimethoxy-phenyl)-6-methyl-1H-4-oxa-5-aza-phenanthrene-2-carbonitrile], for which the IC50 in data set [1] came out at 1130 nM; in data set [4], 4940 nM; in data set [5] it was 2900 nM; in data set [6], 3340 nM; in data set [7], 3160 nM. The IC50 at 24 h in data set [2] and in data set [3] was over 90000 nM each time.

Regarding `COc1cc(C2C(C#N)=C(N(C)C)Oc3cc4ccccc4cc32)cc(Br)c1OC` (centres unmarked) [(31), 2-Dimethylamino-4-(3-bromo-4,5-dimethoxy-phenyl)-4H-benzo[g]chromene-3-carbonitrile], the IC50 was 1960 nM in data set [1] (24 h); over 90000 nM in data set [4]; 4560 nM in data set [5]; 10000 nM in data set [6]; 12000 nM in data set [7]. For the same molecule, the IC50 at 24 h in data set [2] and in data set [3] was over 90000 nM in each case.

For the origin of these results see US20130296344A1, “CHROMENE DERIVATIVES AND THEIR ANALOGA AS WNT PATHWAY ANTAGONISTS” (Ruprecht-Karls-Universitat Heidelberg, priority 2010, published 2013).
